Here are results for one compound from patent US10519423B1, “High efficiency reprogramming of fibroblasts into cardiomyocytes” (The Regents of the University of Colorado, a body corporate, priority 2015, dated 2019).

Assay type in all cases: cell-based, mouse
The test system of experiment [1] is MEFs. The experiment is described as follows: Counting of spontaneously beating cells in infected MEFs. As to the method:
(§1) Fibroblasts were plated on tissue culture dishes pre-coated with SureCoat (Cellutron) at a density of ˜40 cells/mm^2 before transduction. The fibroblast growth medium was replaced with freshly made viral mixture containing polybrene (Sigma). Twenty-four hours later, fibroblasts were infected again with viral mixture containing polybrene. Twenty fours later, the viral medium was replaced with induction medium, composed of DMEM/199 (4:1) (Gibco), 10% FBS (Gemini), 5% horse serum(Gemini), antibiotics (Gibco), 1× non-essential amino acids (Gibco), 1× essential amino acids (Gibco), 1× B-27 (Gibco), 1× insulin-selenium-transferin (Gibco), 1× vitamin mixture (Gibco), and 1× sodium pyruvate (Gibco). Medium was changed every two-three days until cells were examined.
(§2) Cells in 60 mm dishes were examined under an EVOS® FL Color imaging system (Life Technologies) at 25° C. Beating cells were counted at a field with an area of 0.89 mm^2. Ten to fifteen fields in each dish were randomly chosen.

Experiment [2] has as its system adult cardiac fibroblasts (ACFs). The experiment is described as follows: Immunocytochemistry for cTnT and α-actinin in adult cardiac fibroblasts. The settings on record: by 4 weeks, without or with A83-01. Here is the method:
(§3) Hearts or skinned tails from adult C57BL6 mice were cut into small pieces with ˜1 mm diameter. The biopsies were seeded on a 10 cm culture dish and incubated with 10 mL of growth medium (DMEM/Hi glucose (Hyclone), 10% FBS (Gemini:), 1.1% Penicillin-Streptomycin (Gibco) and 1.1% GlutaMAX supplement (Gibco)) at 37° C. with 5% CO2. TTFs migrated out of the biopsies after 3 days. The media were changed every other day. Once the TTFs have reached a 70-80% confluence, the cells were harvested and stored for future use.
as §1
Cells were fixed in 2% PFA for 15 min on ice then washed with DPBS (Gibco) three times at RT. […]

The test system of experiment [3] is adult tail-tip fibroblasts (ATTFs). The experiment is described as follows: Counting of spontaneously beating cells in adult tail-tip fibroblasts. The settings on record: GHMT2m-ATTFs treated with A83-01 (0.5 μM). As to the method:
as §3, §1, §2

For experiment [4], the system named is TTFs. The experiment can be described thus: qPCR of cardiac genes in tail-tip fibroblasts. The settings on record: GHMT2m-TTFs treated with A83-01 for 4 weeks. As to the method: as §3
(§4) Cells were harvested in TRizol reagent (Ambion) for RNA isolation. RNA was extracted with the RNeasy® Plus Universal Mini Kit (Qiagen). RT-PCR was performed using the Superscript III first-strand synthesis system (Invitrogen). qPCR was performed using the SYBR® Green PCR master mix (Applied Biosystems) or StepOne™ Real-Time PCR Systems (Applied Biosystems). Primers are listed in Supplementary Table 1. Ryr2 (Mm00465877_m1) and Myh7 (Mm01319006_91) are Taqman probes (Life technologies).
In general terms: Quantitative PCR measures a nucleic acid by following its amplification.

Experiment [5] relates to MEFs. The experiment can be described thus: Pro-fibrotic marker expression in infected MEFs (qPCR, Western blot, αSMA stress fiber immunostaining). The settings on record: A83-01 0.5 μM, day 7. As to the method: as §4
Samples were placed on ice and washed with ice-cold DPBS (Gibco) twice, then ice-cold lysis buffer (150 mM NaCl, 50 mM Tris-Cl pH7.4, 1 mM EDTA, 1% Triton, Complete mini tablet (Roche), 1 mM PMSF freshly added before use) was added to the cells. Cells were scraped and transferred to a pre-chilled 1.5 Eppendorf tube and frozen in liquid N2. Before used, the lysate was thawed on ice. The lysate was passed carefully through a 25 g needle for 5 times and then centrifuge at 14,000 rpm for 15 minutes at 4° C. The supernatant was transferred to a new 1.5 ml tube. The protein concentration was measured and 20 ug of lysate for each sample was loaded to SDSPAGE. Proteins were then transferred to PVDF. The PDVF membrane was blocked in 2.5% BSA in 1×TBST for 30 mins at room temperature (RT). The primary antibody was added in blocking buffer for 60 mins at RT. Wash in 1×TBST (20 mM Tris-Cl, pH7.4; 150 mM NaCl; 0.1% Tween20) three times at RT, each for 15 mins. The Secondary antibody was added in blocking buffer for 45 mins at RT. The membrane was washed in 1 XTBST for 15 mins, 1×TBST for 5 mins, then TBS (10 mM Tris-Cl pH8, 150 mM NaCl) for 5 mins. The membrane was resolved with Super Signal® West Pico (34080) or Femto (34095) substrate (Thermo Scientfic). The primary antibodies include: Snail (Cell Signaling, 3879S, 1:1000), Slug (Cell Signaling, 9585S, 1:1000), P-Smad2 (Cell Signaling, 23108P, 1:1000), Smad2 (Cell Signaling, 5339, 1:1000), αSMA (Santa Cruz, SC-32251, 1:10000), cTn1 (Phospho Solutions, 2010-TNI, 1:1000), cTnT (Sigma, T6277, 1:1000), and GAPDH (Ambion, AM4300). The secondary antibodies include: Goat Anti-Mouse IgG (H+L) (Southern Biotech, 1031-05, 1:2000). Goat Anti-Rabbit IgG (Life Technologies, 65-6120, 1:2000). For separation of α- and β-myosin heavy chain, samples were run by modified 6% SDS-PAGE (separating acrylamide/bis ratio 1:100; resolving gel buffer pH 9.0; running gel buffer pH 8.2; β-mercaptoethanol 600 μl/l inner gel buffer). Gels were run overnight at 4° C. and stained with BioSafe Coomassie Blue protein stain.
Cells were fixed in 2% PFA for 15 min on ice then washed with DPBS (Gibco) three times at RT. The cells were permeabilized in 0.5% Triton X-100 (made in PBS) for 20 min at RT. After washing the cells with DPBS (Gibco), cells were incubated with the primary antibody against α-actinin (Sigma A7811, 1:300), Connexin 43 (Sigma, C6219, 1:500), Troponin T (Thermo Scientific MS-245-P, 1:500), α-SMA (Santa Cruz Biotechnology, SC-32251, 1:800), Myl2 (Proteintech, 10906-1-AP, 1:200), or Myl7 (Proteintech, 17283-1-AP, 1:200) in 10% FBS(Gemini) in DPBS for 1 hour at RT. Cells were wash with DPBS three times, 5 min each. Cell were incubated with the secondary antibody (Alexa Fluor 555 Molecular Probes A21422, 1:1000) and Hoechest (Molecular Probes 33342, 1:5000) for 30 mins at RT.

Bounds are passed on as bounds.

As for `Cc1cccc(-c2nn(C(=S)Nc3ccccc3)cc2-c2ccnc3ccccc23)n1` [A83-01], in experiment [1] (GHMT2m-infected MEFs treated with A83-01, by day 8), the “increase of the number of beating cells” value amounted to 8 fold. In addition, the “spontaneously contracting cells per cm^2” value in experiment [1] (GHMT-infected MEFs treated with A83-01 (0.5 μM), by 4 weeks) is on record as “about 4400 cells per cm^2”; in experiment [3] (by 4 weeks), “approximately 300 cells per cm^2”. Besides, in experiment [1] (MEFs, GHMT2m alone, or GHMT-infected cultures treated with Y-27632 (30 μM) or A83-01 (0.5 μM)), the “time by which cells started to beat” value was at most 11 days. Also, the “ACFs positive for cTnT” value in experiment [2] (GHMT2m-infected ACFs) was “approximately 18%”; in experiment [2] (GHMT-infected ACFs), “approximately 10%”. Also, in experiment [3], the “time by which spontaneously beating cells appeared” value is given as 2-3 weeks. In experiment [3] (by 4 weeks), the spontaneously contracting cells result is listed as “about 4%”. For the same compound, the cardiomyocyte gene expression result in experiment [4] was “Enhanced”. The “expression of Fn-EDA, Col1a1 and Col3a1, and formation of αSMA+ stress fibers” value in experiment [5] (GHMT- and GHMT2m-infected cultures) was “inhibited”. Further, in experiment [5] (MEFs), the “phosphorylation of Smad2” value is listed as “decreased”.
